According to the supplement of paper PMC10307832:

How the values were obtained:
Assay in all cases: relative viability (nuclei count vs DMSO), 5 days (fraction); higher = more cells survive
Veliparib + Trametinib = compound: C[C@]1(c2nc3c(C(N)=O)cccc3[nH]2)CCCN1 [Veliparib] + CC(=O)Nc1cccc(-n2c(=O)n(C3CC3)c(=O)c3c(Nc4ccc(I)cc4F)n(C)c(=O)c(C)c32)c1 [Trametinib] (partner 0.02 µM)
Outline: (§1)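 Lung cancer cell lines in 1536-well plates were dosed by pin tool the day after seeding, either with one drug alone or with a fixed anchor-drug dose plus five library-drug doses (not always all listed) in √10 steps. After 5 days, cells were fixed and their nuclei stained in one step (final 0.05% Triton X-100, 1% formaldehyde, 1 ug/ml Hoechst), then counted on 4× images. Relative viability is the nuclei count in treated wells divided by that in vehicle wells. Values are medians of duplicate plates.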

Veliparib + AZD7762 = compound: C[C@]1(c2nc3c(C(N)=O)cccc3[nH]2)CCCN1 [Veliparib] + NC(=O)Nc1cc(-c2cccc(F)c2)sc1C(=O)N[C@H]1CCCNC1 [AZD7762] (partner 0.2 µM)
Outline: as §1

[1] = compound: COC1=CC=C(C=C1)CN2C=CC3=C2C=C(C=C3)C(=O)NO + Nc1ncn([C@H]2C[C@H](O)[C@@H](CO)O2)c(=O)n1 [Decitabine] (partner 2 µM)
Outline: as §1

[2] = compound: COC1=CC=C(C=C1)CN2C=CC3=C2C=C(C=C3)C(=O)NO + CS(=O)(=O)N1CCN(Cc2cc3nc(-c4cccc5[nH]ncc45)nc(N4CCOCC4)c3s2)CC1 [Pictilisib] (partner 1 µM)
Outline: as §1

| Cell Line | relative viability (Veliparib + Trametinib; first compound 0.02 µM) | relative viability (Veliparib + Trametinib; first compound 0.06325 µM) | relative viability (Veliparib + Trametinib; first compound 0.2 µM) | relative viability (Veliparib + Trametinib; first compound 0.6325 µM) | relative viability (Veliparib + Trametinib; first compound 2 µM) | relative viability (Veliparib + AZD7762; first compound 0.02 µM) | relative viability (Veliparib + AZD7762; first compound 0.06325 µM) | relative viability (Veliparib + AZD7762; first compound 0.2 µM) | relative viability (Veliparib + AZD7762; first compound 0.6325 µM) | relative viability (Veliparib + AZD7762; first compound 2 µM) | relative viability ([1]; first compound 0.08 µM) | relative viability ([1]; first compound 0.253 µM) | relative viability ([1]; first compound 0.8 µM) | relative viability ([1]; first compound 2.53 µM) | relative viability ([1]; first compound 8 µM) | relative viability ([2]; first compound 0.08 µM) | relative viability ([2]; first compound 0.253 µM) | relative viability ([2]; first compound 0.8 µM) | relative viability ([2]; first compound 2.53 µM) | relative viability ([2]; first compound 8 µM) |
| --- | --- | --- | --- | --- | --- | --- | --- | --- | --- | --- | --- | --- | --- | --- | --- | --- | --- | --- | --- | --- |
| 201T | 0.762 | 0.719 | 0.699 | 0.746 | 0.738 | 0.656 | 0.778 | 0.645 | 0.639 | 0.689 | 0.843 | 0.867 | 0.856 | 0.863 | 0.817 | 0.687 | 0.716 | 0.752 | 0.725 | 0.683 |
| A549 | – | – | – | – | – | – | – | – | – | – | 0.187 | 0.264 | 0.286 | 0.235 | 0.374 | 0.446 | 0.585 | 0.504 | 0.502 | 0.472 |
| A-427 | 0.792 | 0.727 | 0.801 | 0.722 | 0.875 | 0.768 | 0.719 | 0.755 | 0.724 | 0.782 | 0.263 | – | 0.554 | 0.584 | 0.5 | – | 0.743 | 0.787 | 0.643 | 0.606 |
| ABC-1 | – | – | – | – | – | – | 0.778 | 0.771 | 0.752 | 0.716 | – | 1.16 | 1.21 | 1.21 | 0.929 | – | 0.761 | 0.78 | 0.724 | 0.662 |
| BEN | 1.11 | 1.11 | 1.06 | 1.01 | 1.08 | 0.599 | 0.644 | 0.664 | 0.793 | 0.625 | 0.677 | 0.726 | 0.702 | 0.664 | 0.618 | 0.504 | 0.589 | 0.582 | 0.544 | 0.499 |
| CAL-12T | 0.42 | 0.378 | 0.328 | 0.256 | 0.374 | 0.668 | 0.591 | 0.661 | 0.627 | 0.741 | – | – | – | – | – | 0.244 | – | 0.527 | 0.377 | 0.283 |
| COR-L23 | 0.47 | 0.609 | 0.501 | 0.539 | 0.613 | – | – | – | – | – | 0.378 | 0.465 | 0.456 | 0.407 | 0.357 | 0.496 | 0.788 | 0.714 | 0.727 | 0.711 |
| COR-L 105 | 0.448 | 0.463 | 0.475 | 0.432 | 0.468 | – | – | – | – | – | 0.515 | 0.618 | 0.752 | 0.601 | 0.604 | – | 0.348 | 0.462 | 0.363 | 0.306 |
| Calu-6 | – | – | – | – | – | – | – | – | – | – | – | – | – | – | – | 0.426 | 0.946 | 0.981 | 0.969 | 0.826 |
| ChaGo-K-1 | 0.673 | 0.842 | 0.923 | 0.857 | 0.905 | 0.73 | 0.854 | 0.83 | 0.83 | 0.824 | – | 0.502 | 0.526 | 0.525 | 0.488 | – | 0.655 | 0.801 | 0.706 | 0.462 |
| EBC-1 | – | – | – | – | – | – | – | – | – | – | – | – | – | – | – | 0.351 | 0.514 | 0.401 | 0.424 | 0.338 |
| EKVX | – | 0.317 | 0.329 | 0.245 | 0.331 | – | 0.731 | 0.833 | 0.728 | 0.806 | – | 0.327 | 0.378 | 0.372 | 0.415 | 0.327 | 0.443 | 0.424 | 0.522 | 0.439 |
| EMC-BAC-2 | 1.01 | – | 0.922 | 0.752 | 0.913 | 1.15 | 1.02 | 1.12 | 1.09 | 1.17 | 0.606 | – | 1.02 | 0.968 | 0.876 | 0.448 | 0.549 | 0.555 | 0.553 | 0.466 |
| EPLC-272H | – | 0.303 | 0.297 | 0.268 | 0.319 | – | 0.122 | 0.21 | 0.174 | 0.166 | – | 0.407 | 0.385 | 0.457 | 0.378 | 0.233 | 0.333 | 0.341 | 0.287 | 0.218 |
| H3255 | 0.614 | 0.572 | 0.672 | 0.624 | 0.632 | 1 | 0.893 | 0.816 | 0.756 | 0.857 | 0.565 | 0.551 | 0.627 | 0.55 | 0.567 | 0.428 | 0.411 | 0.416 | 0.436 | 0.467 |
| HARA | 0.745 | – | 0.949 | 0.796 | 0.798 | 0.346 | – | 0.302 | 0.308 | 0.573 | – | 0.493 | 0.6 | 0.587 | 0.534 | 0.467 | 0.492 | 0.403 | 0.43 | 0.33 |
| HCC-15 | 0.422 | 0.374 | 0.429 | 0.357 | 0.4 | 1.24 | 1.13 | 1.11 | 1.37 | 1.28 | 0.529 | 0.718 | 0.742 | 0.714 | 0.642 | 0.522 | 0.743 | 0.866 | 0.833 | 0.741 |
| HCC-44 | 1.07 | 0.938 | 1.14 | 1.04 | 1.06 | 1.04 | 0.913 | 0.936 | 0.934 | 1.07 | 0.943 | 0.992 | 0.974 | 0.988 | 0.881 | 0.547 | 0.746 | 0.616 | 0.568 | 0.547 |
| HCC-78 | 0.84 | 0.701 | 0.869 | 0.617 | 0.669 | 0.599 | 0.434 | 0.664 | 0.643 | 0.591 | 0.768 | 0.643 | 0.74 | 0.702 | 0.521 | – | 0.192 | 0.199 | 0.213 | 0.216 |
| HCC-366 | 0.375 | 0.312 | 0.384 | 0.327 | 0.42 | 0.233 | 0.253 | 0.174 | 0.164 | 0.231 | 0.231 | 0.365 | 0.351 | 0.337 | 0.264 | 0.139 | 0.165 | 0.137 | 0.136 | 0.15 |
